Test results reported in patent publication US10294302B2, “Therapeutic method and medicament for HTLV-1 associated myelopathy” (priority 2012, dated 2019).
Like-named read-outs stand apart in the source and are kept apart here.

What was measured:
[1] = system: PBMCs derived from HAM patients; assay: Spontaneous cell proliferation of PBMCs by 3H-thymidine up-take; assay type: cell-based, human; details: for cell proliferation compared to non-drug treatment: Example 3, FIGS. 3A and 3B
From the text: PBMCs of HAM patients and asymptomatic HTLV-1 carriers (AC) were isolated from peripheral bloods that were collected from 9 HAM patients and 8 asymptomatic HTLV-1 carriers by Ficoll density gradient centrifugation, and frozen and stored in liquid nitrogen until assay. The isolated PBMCs were suspended in an RPMI1640 medium containing 10% fetal bovine serum (hereinafter, abbreviated to FBS), 1% penicillin and 1% streptomycin (manufactured by Wako Pure Chemical Industries, Ltd.) (hereinafter, abbreviated to RPMI medium) without proliferation stimulation, and seeded at a density of 1×10^5 cells/100 μL/well in a 96-well round bottom plate. A well added with 1 μg/mL of prednisolone (PSL) was prepared as a positive control, and wells added with 0-10 μg/mL of anti-human CCR4 chimeric antibody KM2760 were prepared as a subject antibody. Cultivation was performed under the conditions of 37° C. and 5% CO2 for 6 days.
After cultivation, 1 μCi ^3H-thymidine was added to each well, and further cultured for 16 hours. After cultivation, the cells were recovered, and specific radioactivity was measured using a liquid scintillation counter (Micro Beta) to determine cell proliferation rate (%) (FIGS. 1A, 1B). The up-take of ^3H-thymidine in the non-drug-treated well was taken as 100%, and the ratio was determined.
In the same manner as in Example 1, PBMCs isolated from the peripheral blood of HAM patient were seeded in a 96-well bottom plate. A well added with 0.1 or 1 μg/mL of prednisolone and wells added with 0.1 μg/mL prednisolone+0.01-10 μg/mL of anti-human CCR4 chimeric antibody KM2760 were prepared to perform cultivation.
For cell proliferation assay by ^3H-thymidine up-take, ^3H-thymidine was added at 6 days after cultivation in the same manner as in Example 1, and further cultured for 16 hours. Further, the amount of HTLV-1 proviral DNA was determined at 7 days after cultivation in the same manner as in Example 2.
(§1) In all assays, the proliferation rate (FIGS. 3A and 3B) or the amount of HTLV-1 proviral DNA (FIGS. 3C and 3D) was represented as a percentage, when the well treated with no drug was taken as 100%.
(§2) Inhibitory effects of anti-human CCR4 chimeric antibody KM2760 and anti-human CCR4 humanized antibody Poteligeo® (manufactured by Kyowa Hakko Kirin co., Ltd.) on spontaneous cell proliferation, the amount of HTLV-1 provirus DNA, and the cytokine production in PBMCs of HAM patients (N=11) were examined in the same manner as in Examples 1, 2, and 4.

[2] = system: PBMCs derived from HAM patients; assay: Actual number of cells after cultivation of PBMCs; assay type: cell-based, human; details: 1 μg/mL; 7 days after cultivation; FIG. 1C
Method: In the same manner, PBMCs derived from HAM patients were cultured by addition of 1×10^−6 μg/mL-10 μg/mL of KM2760, and at 7 days after cultivation, the actual number of cells was counted (FIG. 1C).

[3] = system: HTLV-1 proviral DNA in PBMCs derived from HAM patients; assay: Amount of HTLV-1 proviral DNA in PBMCs by real time-PCR; assay type: cell-based
Method: Then, genomic DNAs were extracted from PBMCs of HAM patients using phenol/chloroform.
(§3) Real time-polymerase chain reaction (hereinafter, abbreviated to PCR) was performed using the extracted genomic DNA as a template, and TaqMan probes for HTLV-1 pX region and human β-actin, and a primer set of each gene.
(§4) As a standard sample of HTLV-1 pX, a genomic DNA derived from HTLV-1 infected rat TARL2 cell line where 1 copy/cell of HTLV-1 pX region was integrated was used, and as a standard sample of β-actin, a genomic DNA derived from PBMC of a normal person was used to perform PCR at the same time and to obtain a standard curve. The copy numbers of pX and β-actin of each sample were calculated using the standard curve, and the amount of HTLV-1 proviral DNA was determined by the following Equation (FIGS. 2A and 2B). Amount of HTLV-1 proviral DNA: copy number of HTLV-1(pX)/100 PBMC cells=(copy number of pX)/(copy number of β-actin/2)×100
Cultivation was performed in the same manner, and the absolute amount of the HTLV-1 proviral DNA per well was determined (FIGS. 2C and 2D).
In the same manner as above, 1×10^−6 μg/mL-10 μg/mL of KM2760 were added to culture PBMCs derived from HAM patients, and at 7 days after cultivation, the amounts of HTLV-1 proviral DNA were determined (FIG. 2E).
as §1

[4] = system: HTLV-1 proviral DNA in PBMCs derived from asymptomatic HTLV-1 carriers (ACs); assay: Amount of HTLV-1 proviral DNA in PBMCs by real time-PCR (asymptomatic carriers); assay type: cell-based; details: 1 μg/mL; 7 days; AC N=8, FIG. 2F
Method: The amount of HTLV-1 proviral DNA was quantified in accordance with the method described in Yamano et al (Blood, 2002; 99: 88-94) and Nagai et al (J. Infectious Diseases; 2001; 183: 197-205).
At 7 days after cultivation, cells were recovered from each well, and the recovered cells were suspended in a buffer containing 50 mM Tris-HCl (pH 8.0), 20 mM EDTA, 0.1 M NaCl and 1% SDS (hereinafter, referred to as lysis buffer), and then 150 μg/mL of proteinase K (manufactured by Wako Pure Chemical Industries, Ltd.) was added thereto, followed by shaking at 55° C. overnight. Then, genomic DNAs were extracted from PBMCs of HAM patients using phenol/chloroform.
as §3
as §4, with “Amount of HTLV-1 proviral DNA: copy number of HTLV-1(pX)/100 PBMC cells=(copy number of pX)/(copy number of β-actin/2)×100” left out

[5] = system: IFN-γ production in PBMCs of HAM patients; assay: IFN-γ production in PBMC culture supernatant (Cytometric Bead Array); assay type: cell-based, human; details: 7 days culture; combination: 0.1 μg/mL PSL+0.01 μg/mL-10 μg/mL KM2760 versus KM2760 alone
Method: (§5) In order to examine the inhibitory effect of anti-human CCR4 antibody and adrenocorticosteroid drug on inflammatory cytokine production in PBMCs of HAM patients, PBMCs of HAM patients were cultured, and the concentrations of IFN-γ, TNF-α, IL-2, IL-6 and IL-10 in the culture supernatants were measured.
(§6) PBMCs of HAM patients were cultured for 7 days in the same manner as in Example 2, and the culture supernatants were recovered after cultivation. The concentrations of the cytokines were measured using kits for measuring cytokine concentrations (all manufactured by BD Biosciences), Human IFNγ Flex kit (cat. 560111), Human TNFα Flex kit (cat. 560122), Human IL-6 Flex kit (cat. 558276), Human IL-2 Flex kit (cat. 558270) and Human IL-10 Flex kit (cat. 558274) by BD™ Cytometric Bead Array (CBA) (FIGS. 4A, 4B, 5A, 5B, 6A, 6B, 7A, 7B, 8A and 8B).
as §2

[6] = system: TNF-α production in PBMCs of HAM patients; assay: TNF-α production in PBMC culture supernatant (Cytometric Bead Array); assay type: cell-based, human; details: 7 days culture; combination: 0.1 μg/mL PSL+0.01 μg/mL-10 μg/mL KM2760 versus KM2760 alone
Method: as §5, §6, §2

[7] = system: IL-6 production in PBMCs of HAM patients; assay: IL-6 production in PBMC culture supernatant (Cytometric Bead Array); assay type: cell-based, human; details: 7 days culture; combination: 0.1 μg/mL PSL+0.01 μg/mL-10 μg/mL KM2760 versus KM2760 alone
Method: as §5, §6, §2

[8] = system: IL-2 production in PBMCs of HAM patients; assay: IL-2 production in PBMC culture supernatant (Cytometric Bead Array); assay type: cell-based, human; details: 7 days culture; combination: 0.1 μg/mL PSL+0.01 μg/mL-10 μg/mL KM2760 versus KM2760 alone
Method: as §5, §6, §2

[9] = cited from earlier work
[10] = system: IL-10 production in PBMCs of HAM patients; assay: IL-10 production in PBMC culture supernatant (Cytometric Bead Array); assay type: cell-based, human; details: 7 days culture; combination: 0.1 μg/mL PSL+0.01 μg/mL-10 μg/mL KM2760 versus KM2760 alone
Method: as §5, §6, §2

[11] = PSL 1 μg/mL, antibody up to 10 μg/mL, 7 days, compared to non-drug treatment

Molecule	cell proliferation compared to non-drug treatment ([1]; 0.1 μg/mL)	cell proliferation compared to non-drug treatment ([1]; 1 μg/mL)	inhibition at 1 µg/mL ([1]; Homo sapiens, PBMC, 1 μg/mL, 6 days + 16 h 3H-thymidine, 9 HAM patients, FIG. 1B, read-out: cell proliferation inhibition compared to non-drug treatment)	number of cells compared to non-drug treatment [2]	effect on the amount of proviral DNA (in words) ([3]; 1 μg/mL, 7 days, FIG. 2E)	absolute amount of HTLV-1 proviral DNA of each well compared to non-drug treatment ([3]; 1 μg/mL, Example 3, FIGS. 3E and 3F)	absolute amount of HTLV-1 proviral DNA per well, fraction of non-drug treatment ([3]; 1 μg/mL, FIGS. 2C and 2D)	effect on the amount of HTLV-1 proviral DNA (in words) ([3]; 0.1 or 1 μg/mL, Example 3)	effect on the amount of HTLV-1 proviral DNA (in words) [3, 11]	effect on the amount of proviral DNA (in words) [4]	inhibition of IFN-γ production (in words) [5]	inhibition of TNF-α production (in words) [6]	inhibition of IL-6 production (in words) [7]	inhibition of IL-2 production (in words) [8]	blood concentration ([9]; oral administration of 50 mg to a clinical patient)	blood concentration ([9]; oral administration of a low dose of 5 mg to a clinical patient)	inhibition of spontaneous cell proliferation (in words) ([1]; antibody 0-10 μg/mL, 3H-thymidine up-take)	inhibition of IL-10 production (in words) [10]
C[C@]12C=CC(=O)C=C1CC[C@@H]1[C@@H]2[C@@H](O)C[C@@]2(C)[C@H]1CC[C@]2(O)C(=O)CO [PSL, prednisolone]	approximately 70%	~50%	~50%	approximately 50%	almost didn't reduce the amount of proviral DNA	approximately 50%	⅓	almost didn't reduce the amount of HTLV-1 proviral DNA	did not show the effect of reducing the amount of HTLV-1 proviral DNA	almost didn't reduce the amount of proviral DNA	inhibited the production of all cytokines	inhibited the production of all cytokines	inhibited the production of all cytokines	inhibited the production of all cytokines	approximately 1 μg/mL	approximately 0.1 μg/mL		
Mogamulizumab (antibody, chains of the INN, looked up, V domains shown, anti-human CCR4 humanized antibody, manufactured by Kyowa Hakko Kirin) VH: EVQLVESGGDLVQPGRSLRLSCAASGFIFSNYGMSWVRQAPGKGLEWVATISSASTYSYYPDSVKGRFTISRDNAKNSLYLQMNSLRVEDTALYYCGRHSDGNFAFGYWGQGTLVTVSS VL: DVLMTQSPLSLPVTPGEPASISCRSSRNIVHINGDTYLEWYLQKPGQSPQLLIYKVSNRFSGVPDRFSGSGSGTDFTLKISRVEAEDVGVYYCFQGSLLPWTFGQGTKVEIK									inhibited		inhibited	inhibited	inhibited	inhibited			inhibited	inhibited
